This is an account of results in patent publication US8889707B2, “Treatment of addiction” (priority 2012, dated 2014).

This assay relates to Male Sprague-Dawley rats trained for cocaine-CPP. Description: Cocaine-CPP memory retrieval test, PJ-34 infused before testing. The class given is in vivo, rat. Particulars: intra-CeA infusion, p<0.01.

Regarding `CN(C)CC(=O)Nc1ccc2[nH]c(=O)c3ccccc3c2c1.Cl` [PJ-34, N-(6-Oxo-5,6-dihydrophenanthridin-2-yl)-(N,N-dimethylamino)acetamide hydrochloride], the “Preference for the cocaine compartment” value (50 microM, 1.2 microl, tested 30 min after infusion, vs vehicle, FIG. 4A) is given as “abolished”. Besides, the “Abolished preference for the cocaine compartment in post-conditioning test” value is, setting by setting: (test 24 hours later) “persisted”; (test 7 days later) “persisted”; (test 14 days later) “persisted”.
